Consider 1 molecule from PMC7021728, “Structure of the agonist 12–HHT in its BLT2 receptor-bound state” (Scientific Reports, 2020).

The target of experiment [1] is T1, BLT2 R270^7.35A (Homo sapiens, UniProt Q9NPC1, R270A).
T1 construct: made in house
T1 sequence (Q9NPC1 1-358 R270A): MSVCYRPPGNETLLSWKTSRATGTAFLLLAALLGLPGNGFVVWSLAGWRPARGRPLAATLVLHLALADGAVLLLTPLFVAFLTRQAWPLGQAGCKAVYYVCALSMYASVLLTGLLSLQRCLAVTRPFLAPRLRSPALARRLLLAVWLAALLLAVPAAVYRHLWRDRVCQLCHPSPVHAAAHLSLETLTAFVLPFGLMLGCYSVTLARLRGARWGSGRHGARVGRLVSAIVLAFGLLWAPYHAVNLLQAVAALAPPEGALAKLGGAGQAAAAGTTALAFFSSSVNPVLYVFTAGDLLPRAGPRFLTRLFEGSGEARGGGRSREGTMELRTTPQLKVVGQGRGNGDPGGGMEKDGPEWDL
Nature of the experiment: Gi protein activation catalyzed by BLT2 mutant. In kind it is biochemical. The settings on record: construct R270^7.35A. Here is the method: (§1) All mutations were introduced in the wild-type BLT2 receptor by PCR-mediated mutagenesis using the QuickChange multisite-directed mutagenesis kit (Stratagene) and the wild-type BLT2 construct as a template. Mutations were confirmed by nucleotide sequencing.
(§2) Gαi2 and Gβ1γ2 were prepared as previously described. Briefly, agonist-dependent functional coupling of the purified receptor to Gαi2β1γ2 was assessed through the rate of GTPγS binding at increasing agonist concentrations determined by monitoring the relative increase in the intrinsic fluorescence ( λexcitation=300nm , λemission=345nm ) of Gαi2 (200 nM of purified G protein) in the presence of BLT2 (20 nM) in buffer containing 10 mM MOPS, pH 7.2, 130 mM NaCl, and 2 mM MgCl2 at 15 °C after the addition of 10 μM GTPγS. The data were normalized to the fluorescence maximum obtained in the presence of saturating concentrations in 12–HHT (10 μM).

In experiment [2] the target is T2, BLT2 S174^ECL2A (Homo sapiens, UniProt Q9NPC1, S174A).
T2 construct: made in house
T2 sequence (Q9NPC1 1-358 S174A): T1 sequence (Q9NPC1 1-358 R270A) with S174A, A270R
Description: Gi protein activation catalyzed by BLT2 mutant. Type of experiment: biochemical. Here is the method:
as §1, §2

In experiment [3] the target is T3, BLT2 H177^ECL2A (Homo sapiens, UniProt Q9NPC1, H177A).
T3 construct: made in house
T3 sequence (Q9NPC1 1-358 H177A): T1 sequence (Q9NPC1 1-358 R270A) with H177A, A270R
Description: Gi protein activation catalyzed by BLT2 mutant. Type of experiment: biochemical. Here is the method:
All mutations were introduced in the wild-type BLT2 receptor by PCR-mediated mutagenesis using the QuickChange multisite-directed mutagenesis kit (Stratagene) and the wild-type BLT2 construct as a template. Mutations were confirmed by nucleotide sequencing. […] Gαi2 and Gβ1γ2 were prepared as previously described. […] The data were normalized to the fluorescence maximum obtained in the presence of saturating concentrations in 12–HHT (10 μM).

The test system of experiment [4] is BLT2. Details: method as in PMID 18378794. The settings on record: membrane fractions of CHO transfected by BLT2; cited from earlier work.
Experiment [5] has as its target T4, wild-type BLT2 receptor (Homo sapiens, UniProt Q9NPC1).
T4 construct: made in house
T4 sequence (Q9NPC1 1-358): T1 sequence (Q9NPC1 1-358 R270A) with A270R
Nature of the experiment: Gi protein activation catalyzed by purified BLT2 (rate of GTPγS binding, Gαi2 intrinsic fluorescence). Type of experiment: biochemical. Here is the method:
as §2

Experiment [6] relates to BLT1. On the set-up: method as in PMID 18378794. The settings on record: in words; cited from earlier work.

Where a chain is given by its changes, count along the chain named. Like-named read-outs stand apart in the source and are kept apart here.

As for `CCCCC[C@H](O)/C=C/C=C/C/C=C\CCCC(=O)O` [12–HHT, 12S–hydroxyheptadeca-5Z,8E,10E-trienoic acid], the EC50 was 235 nM in experiment [1]; 295 nM in experiment [2] (S174^ECL2A, read-out: EC50); 289 nM in experiment [2] (construct S174^ECL2A, given as LogEC50 (negative sign), read-out: LogEC50 (converted)); 295 nM in experiment [2] (construct S174^ECL2A, read-out: EC50); 24.3 nM in experiment [3] (construct H177^ECL2A); 21 nM in experiment [5] (construct wt, Gi protein activation). Further, the EC50 in experiment [5] (wild-type) is 21 nM. The “effect of the mutation on ligand binding” value in experiment [3] (H177^ECL2 to alanine compared to wild-type, in words) is listed as “do not display a significant impact on ligand binding”. Also, in experiment [4], the “half maximal effective concentration (EC50) compared to LTB4” value is on record as “about one order of magnitude lower than LTB4”. Besides, in experiment [6], the “binding to BLT1” value is recorded as “does not bind”.
